Patent publication US7645758B2, “Heterocyclic compounds” (Janssen Pharmaceutica, N.Y., priority 2002, dated 2010)
Where two headings read alike, the source gives them in different places.

How the values were obtained:
human eosinophils = experiment: Inhibition of eosinophil shape change (GAFS); assay type: cell-based; conditions: for effect on histamine-induced shape change: H1 or H2 specific antagonist
Procedure: Eosinophil accumulation in sites of allergic reaction is a well-known characteristic of allergic rhinitis and asthma. […] Shape change is a cellular characteristic that precedes eosinophil chemotaxis.
Human granulocytes were isolated from human blood by a Ficoll gradient. The red blood cells were lysed with 5-10× Qiagen lysis buffer at room temperature for 5-7 min. Granulocytes were harvested and washed once with FACS buffer. The cells were resuspended at a density of 2×10^6 cells/mL in reaction buffer. […] Ten minutes later the cells were transferred to ice and fixed with 250 μL of ice-cold fixative buffer (2% formaldehyde) for 1 min.

[1] = biological target: T1, human histamine H4 receptor (Homo sapiens, UniProt Q9H3N8); experiment: Binding assay on recombinant human histamine H4 receptor
T1 construct: expressed in transfected cells; host or cells: SK-N-MC or COS7 cells, transiently transfected with pH4R; cell membranes

Mast cells = experiment: Mast cell chemotaxis assay; assay type: cell-based; conditions: 10 μM Histamine
Procedure: Mast Cell Chemotaxis Assay
Mast cell accumulation in mucosal epithelia is a well-known characteristic of allergic rhinitis and asthma. Transwells (Costar, Cambridge, Mass.) of a pore size 8 μm were coated with 100 μL of 100 ng/mL human fibronectin (Sigma) for 2 h at room temperature. […] Mast cells (2×10^5/well) were added to the top chamber. The plates were incubated for 3 h at 37° C. Transwells were removed and the cells in the bottom chamber were counted for sixty seconds using a flow cytometer.

[2] = Histamine 0 μM, 10 μM HR antagonist
[3] = Histamine 0.01 μM, 10 μM HR antagonist
[4] = Histamine 0.1 μM, 10 μM HR antagonist
[5] = Histamine 1 μM, 10 μM HR antagonist
[6] = Histamine 10 μM, 10 μM HR antagonist
[7] = 3H-histamine competition, membranes of SK-N-MC or COS7 cells expressing human H4, read-out: Ki
[8] = repeated in the chemotaxis table, read-out: Binding Assay Ki

T1 sequence (Q9H3N8 whole entry): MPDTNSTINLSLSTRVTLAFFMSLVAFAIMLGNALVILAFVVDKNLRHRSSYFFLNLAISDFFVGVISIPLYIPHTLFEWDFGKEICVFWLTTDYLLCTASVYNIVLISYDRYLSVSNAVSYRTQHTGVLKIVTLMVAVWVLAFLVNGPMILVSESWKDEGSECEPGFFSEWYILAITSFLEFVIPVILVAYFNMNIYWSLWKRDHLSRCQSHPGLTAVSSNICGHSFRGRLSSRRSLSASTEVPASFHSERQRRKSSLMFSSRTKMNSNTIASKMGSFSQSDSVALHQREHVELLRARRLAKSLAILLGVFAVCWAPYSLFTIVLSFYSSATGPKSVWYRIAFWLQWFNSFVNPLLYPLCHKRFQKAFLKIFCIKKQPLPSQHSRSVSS

CN(C)CCOC(c1ccccc1)c1ccccc1 [diphenhydramine]
effect on histamine-induced shape change (human eosinophils): did not alter | Fold Change (human eosinophils; [2]): 1.00 | Fold Change (human eosinophils; [3]): 1.03 | Fold Change (human eosinophils; [4]): 1.18 | Fold Change (human eosinophils; [5]): 1.50 | Fold Change (human eosinophils; [6]): 1.63

CC1CN(C(=O)c2cc3scc(Br)c3[nH]2)CCN1 (stereo not shown) [Example 20, (3-Bromo-4H-thieno[3,2-b]pyrrol-5-yl)-(3-methyl-piperazin-1-yl)-methanone]
Ki [1, 7]: 980 nM | Ki [1, 8]: 980 nM | % Inh (Mast cells; HR Antagonist 1 μM): <5% | % Inh (Mast cells; HR Antagonist 10 μM): <5%

CN1CCN(C(=O)c2cc3sc(Cl)c(Cl)c3[nH]2)CC1 [Example 25, (2,3-Dichloro-4H-thieno[3,2-b]pyrrol-5-yl)-(4-methyl-piperazin-1-yl)-methanone]
Ki [1, 7]: 5.5 nM

CN1CCN(C(=O)c2cc3sc(Cl)cc3[nH]2)CC1 [Example 10, (2-Chloro-4H-thieno[3,2-b]pyrrol-5-yl)-(4-methyl-piperazin-1-yl)-methanone]
Ki [1, 7]: 40 nM | Ki [1, 8]: 40 nM

CC1CN(C(=O)c2cc3sccc3[nH]2)CCN1 (stereo not shown) [Example 9, (3-Methyl-piperazin-1-yl)-(4H-thieno[3,2-b]pyrrol-5-yl)-methanone]
Ki [1, 7]: 733 nM

Cc1csc2cc(C(=O)N3CCNC(C)C3)[nH]c12 (stereo not shown) [Example 22, (3-Methyl-piperazin-1-yl)-(3-methyl-4H-thieno[3,2-b]pyrrol-5-yl)-methanone]
Ki [1, 7]: 161 nM

O=C(c1cc2ccsc2[nH]1)N1CCN2CCCC2C1 (stereo not shown) [Example 2, (Hexahydro-pyrrolo[1,2-a]pyrazin-2-yl)-(6H-thieno[2,3-b]pyrrol-5-yl)-methanone]
Ki [1, 7]: 461 nM

O=C(c1cc2sccc2[nH]1)N1CCNCC1 [Example 8, Piperazin-1-yl-(4H-thieno[3,2-b]pyrrol-5-yl)-methanone]
Ki [1, 7]: 343 nM

NCCc1c[nH]cn1 [Histamine, histamine]
Fold Change (human eosinophils; Histamine 0.01 μM, No HR Antagonist): 1.01 | Fold Change (human eosinophils; Histamine 0.1 μM, No HR Antagonist): 1.21 | Fold Change (human eosinophils; Histamine 1 μM, No HR Antagonist): 1.31 | Fold Change (human eosinophils; Histamine 10 μM, No HR Antagonist): 1.34 | shape change in eosinophils (human eosinophils; histamine alone): induces a dose-dependent shape change

Cc1cc2[nH]c(C(=O)N3CCN(C)CC3)cc2o1 [Example 14, (2-Methyl-4H-furo[3,2-b]pyrrol-5-yl)-(4-methyl-piperazin-1-yl)-methanone]
Ki [1, 7]: 343 nM

CNC(=C[N+](=O)[O-])NCCSCc1ccc(CN(C)C)o1 [ranatidine]
effect on histamine-induced shape change (human eosinophils): did not alter | Fold Change (human eosinophils; [2]): 1.00 | Fold Change (human eosinophils; [3]): 1.04 | Fold Change (human eosinophils; [4]): 1.21 | Fold Change (human eosinophils; [5]): 1.49 | Fold Change (human eosinophils; [6]): 1.64

CN1CCN(C(=O)c2cc3ccsc3[nH]2)CC1 [Example 1, (4-Methyl-piperazin-1-yl)-(6H-thieno[2,3-b]pyrrol-5-yl)-methanone]
Ki [1, 7]: 85 nM

O=C(c1cc2cc(Cl)sc2[nH]1)N1CCNCC1 [Example 5, (2-Chloro-6H-thieno[2,3-b]pyrrol-5-yl)-piperazin-1-yl-methanone]
Ki [1, 7]: 56 nM

O=C(c1cc2sc(Cl)cc2[nH]1)N1CCN2CCCC2C1 (stereo not shown) [Example 11, (2-Chloro-4H-thieno[3,2-b]pyrrol-5-yl)-(hexahydro-pyrrolo[1,2-a]pyrazin-2-yl)-methanone]
Ki [1, 7]: 715 nM

Cc1oc2cc(C(=O)N3CCN(C)CC3)[nH]c2c1C [Example 15, (2,3-Dimethyl-4H-furo[3,2-b]pyrrol-5-yl)-(4-methyl-piperazin-1-yl)-methanone]
Ki [1, 7]: 140 nM

O=C(c1cc2scc(Br)c2[nH]1)N1CCNCC1 [Example 19, (3-Bromo-4H-thieno[3,2-b]pyrrol-5-yl)-piperazin-1-yl-methanone]
Ki [1, 7]: 410 nM

CN1CCN(C(=O)c2cc3occc3[nH]2)CC1 [Example 6, (4H-Furo[3,2-b]pyrrol-5-yl)-(4-methyl-piperazin-1-yl)-methanone]
Ki [1, 7]: 840 nM

Cc1sc2cc(C(=O)N3CCN(C)CC3)[nH]c2c1C [Example 16, (2,3-Dimethyl-4H-thieno[3,2-b]pyrrol-5-yl)-(4-methyl-piperazin-1-yl)-methanone]
Ki [1, 7]: 5 nM

Cc1c(Cl)sc2cc(C(=O)N3CCN(C)CC3)[nH]c12 [Example 23, (2-Chloro-3-methyl-4H-thieno[3,2-b]pyrrol-5-yl)-(4-methyl-piperazin-1-yl)-methanone]
Ki [1, 7]: 3 nM

CN1CCN(C(=O)c2cc3sccc3[nH]2)CC1 [Example 7, (4-Methyl-piperazin-1-yl)-(4H-thieno[3,2-b]pyrrol-5-yl)-methanone]
Ki [1, 7]: 125 nM

CN1CCN(C(=O)c2cc3c(Cl)c(Cl)sc3[nH]2)CC1 [Example 17, (2,3-Dichloro-6H-thieno[2,3-b]pyrrol-5-yl)-(4-methyl-piperazin-1-yl)-methanone]
Ki [1, 7]: 10 nM

O=C(c1cc2cc(Cl)sc2[nH]1)N1CCN2CCCC2C1 (stereo not shown) [Example 4, (2-Chloro-6H-thieno[2,3-b]pyrrol-5-yl)-(hexahydro-pyrrolo[1,2-a]pyrazin-2-yl)-methanone]
Ki [1, 7]: 176 nM | Ki [1, 8]: 176 nM | % Inh (Mast cells; HR Antagonist 1 μM): <5% | % Inh (Mast cells; HR Antagonist 10 μM): <5%

Cc1cc2[nH]c(C(=O)N3CCNCC3)cc2o1 [Example 18, (2-Methyl-4H-furo[3,2-b]pyrrol-5-yl)-piperazin-1-yl-methanone]
Ki [1, 7]: 770 nM

CN1CCN(C(=O)c2cc3scc(Br)c3[nH]2)CC1 [Example 12, (3-Bromo-4H-thieno[3,2-b]pyrrol-5-yl)-(4-methyl-piperazin-1-yl)-methanone]
Ki [1, 7]: 56 nM

Cc1csc2cc(C(=O)N3CCN(C)CC3)[nH]c12 [Example 13, (4-Methyl-piperazin-1-yl)-(3-methyl-4H-thieno[3,2-b]pyrrol-5-yl)-methanone]
Ki [1, 7]: 21 nM | Ki [1, 8]: 21 nM | % Inh (Mast cells; HR Antagonist 1 μM): 60%

CN1CCN(C(=O)c2cc3cc(Cl)sc3[nH]2)CC1 [Example 3, (2-Chloro-6H-thieno[2,3-b]pyrrol-5-yl)-(4-methyl-piperazin-1-yl)-methanone]
Ki [1, 7]: 25 nM | Ki [1, 8]: 25 nM

Cc1c(Cl)sc2cc(C(=O)N3CCNCC3)[nH]c12 [Example 24, (2-Chloro-3-methyl-4H-thieno[3,2-b]pyrrol-5-yl)-piperazin-1-yl-methanone]
Ki [1, 7]: 30 nM

Cc1csc2cc(C(=O)N3CCNCC3)[nH]c12 [Example 21, (3-Methyl-4H-thieno[3,2-b]pyrrol-5-yl)-piperazin-1-yl-methanone]
Ki [1, 7]: 80 nM
